According to patent US8883856B2, “Compositions and methods for the treatment of inflammatory diseases using topoisomerase inhibitors” (priority 2000, dated 2014):
Read-outs that look alike come from different tables or passages of the source.

How the values were obtained:
[1] = system: caspase 3; experiment: Caspase 3 activation in neutrophils (caspACE assay system); assay type: cell-based, human
Text: The inflammation associated with many forms of arthritis is thought to arise from the presence of large numbers of immune cells, such as neutrophils, in the synovial joints of humans. The extended inflammation associated with crystal induced arthritis arises from the interaction of neutrophils with crystals in the synovial joint. One reason the extended duration of the inflammation in this disease may be due to the inhibition of neutrophil apoptosis by crystals. This inhibition may result in the neutrophils remaining in the joint for extended periods. Compounds that overcome this crystal induced suppression of neutrophil apoptosis therefore allow the more rapid clearance of these cells from the joint with the appropriate abatement of inflammation. The process of apoptosis involves the endonuclease driven cleavage of DNA into fragments which may be visualized as a ladder of bands in an agarose gel electrophoresis experiment. Other assays that may be used include caspase 3 quantitation or measurements of cytoplasmic DNA concentration. […] Agents that inhibit caspase activation levels or reduce cytoplasmic DNA are pro-survival (potentially inflammatory) and agents that promote are pro-apoptotic and anti-inflammatory. The use of these methods and their role in neutrophil affected inflammation is described in detail in Tudan et al. J Rheumatol. 27 p 2463-72. 2000.
Methods: Agarose gel banding/laddering of 180 base pairs: Neutrophils were separated from fresh human blood by standard methods (dextran sedimentation and ficoll paque centrifugation) and suspended in buffer at a concentration of 1×10^6 cells/ml. The cells were then incubated with crystals of calcium pyrophosphate dihydrate (CPPD) for 1 hours at 37° C. The cells were then incubated with or without camptothecin (0.1 uM) for 4 hours at 37° C. Neutrophil aliquots (1×10^6 cells) from different conditions were resuspended in 480 μl of lysis buffer (0.6% SDS, 10 mM Tris, 1 mM EDTA (pH 7.0)) and after vigorous mixing were allowed to sit on ice for 20 min after addition of 120 μl of 5M NaCl. In caspase 3 and DNA fragmentation assays a milder detergent (Triton) was used to lyse only the plasma membrane of the cells so that cytoplasmic contents (caspase 3 or DNA fragments) could be assayed. Samples were sedimented at 14,000 rpm at 4° C. for 20 min. The pellet was dried and resuspended in phenol:chloroform. Four hundred fifty μl of the upper phase was added to a new tube, which was then charged with 950 μl of […] and held at −20° C. for 10 min. The DNA was sedimented at 14,000 rpm (4° C.) and carefully washed in 75% ethanol without disturbing the pellet. The DNA was dried at 37° C. and then resuspended in 20 μl sample buffer (50% TBE with 1 μl of 1 ng/ml RNase A (Pharmacia)). The samples were vortexed and allowed to stand at 37° C. for 10 min. Five μl of loading dye (20% Ficoll Paque (Pharmacia), 0.1% bromophenol blue, 0.1% xylene cyanole) was added. Electrophoresis was carried out in 2% agarose at 80 mA, and the gel was then stained with ethidium bromide (Pharmacia) and photographed under U.V. illumination.
Caspase 3 activation was assayed using a commercial kit for this enzyme (caspACE assay system, Promega Scientific) and cyotplasmic DNA was assayed using a commercial kit (Cell death detection ELISA-Boehringer—Mannheim).

[2] = system: surgical adhesions; assay type: in vivo; conditions: for mean surgical adhesion score: 2.5% loaded crosslinked HA film, 8 days, scale 0 (no adhesions) to 3 (inseparable without cutting), control film mean 2.33; for surgical adhesion formation, in words: drug-loaded crosslinked HA films (camptothecin 2.5%, doxorubicin 2.5%, beta-lapachone 5%, curcumin 10%)
Method: The rat caecal-sidewall adhesion model was used to test efficacy of crosslinked hyaluroinc acid (HA) polymeric films loaded with one of the following compounds; camptothecin 2.5% loading (w/w to polymer), curcumin 10%, doxorubicin 2.5%, beta-lapachone at 5% or unloaded-no-drug control. Films of 2-2.5 cm^2 were prepared with each drug by the method described in example 10. ETO sterilized, and divided in half at the time of surgical implantation. Sham surgeries omitted the application of HA film as separate controls.
Sprague Dawley rats, 15 male and 15 female, weighing 250-400 g were anaesthetized with Halothane (5%) and maintained, by nose cone, on 1.5-2% Halothane. Surgeries were conducted under sterile conditions. The abdomen was shaved, scrubbed with an antiseptic wash, and opened at the linea alba with a 3 cm incision. A region of the abdominal cavity immediately opposite the large bowel was isolated with bowel clamps, and a #11 scalpel blade was used to score a section of the transversus muscle, describing a rectangle 1×1.5 cm. The muscle was stripped from the peritoneal sidewall with forceps, and minor bleeding was arrested by tamponade. The large bowel was then externalized with sterile swabs, and caecal contents evacuated into the large bowel. Both surfaces of the caecum were stroked, 45 times on each side, with a #10 scalpel blade to produce erythema and punctated bleeding. Each stroke spanned the caecal diameter (approximately 1 cm), and extended along 1.5 cm of the caecal extremity. In only one case did this abrasion procedure cause sustained bleeding requiring ligation. Following 90 blade strokes, the integrity of the tissue was confirmed, and caecum and large bowel were replaced in the pelvis.
The film was laid over the rectangular sidewall abrasion (except in the case of sham surgeries), covering the area of damaged tissue. The abraded caecum, relocated in its previous orientation, was than overlaid such that the entire sidewall wound and film were covered by it. Four tacking sutures were placed at the outer extremities of the abraded area of the caecum securing it to the intact peritoneal sidewall immediately outside the rectangular wound area. The abdomen was closed in two layers, and antibiotics administered intramuscularly before the animal regained consciousness.
. Adhesions over, and adjacent to the caecum were rated according to the following findings: 0: No adhesions connecting caecum to sidewall wound; 1: Filmy or stranded were separable by blunt dissection; 2: Cohesive adhesions attaching the caecum to the sidewall were separable by aggressive blunt dissection; 3: Adhesions inseparable without cutting, or without tearing/damaging caecum. Fractions were assigned where a variety of ratings seemed applicable.

[3] = system: rat carotid artery; assay type: in vivo; conditions: for inhibition of luminal narrowing / inhibition of intimal hyperplasia: perivascular
Text: In this model of restenosis, a balloon catheter is used to induce damage to the lumen of carotid arteries in rats. This damage causes extensive intimal hyperplasia and luminal narrowing, characteristic of restenosis. To determine the effect of drugs as antirestenosis agents, a polymeric dosage form of a drug is applied to the outside of the artery (perivascular application).
Wistar rats weighing 400 g to 500 g were anesthetized with halothane. A vertical incision was made over the trachea and the left carotid artery was exposed. Two ligatures were placed around the external carotid artery and an arteriotomy was made between them. A 2 French Fogarty balloon catheter was introduced into the external carotid artery and pushed into the left common carotid artery and the balloon was inflated with saline. The catheter was passed up and down the entire length of the carotid artery three times to stretch the vessel and denude the endothelium. The catheter was removed and the ligatures were tied off on the external carotid artery. […] The wound was then closed and the animals recovered. After 14 days, the rats were sacrificed and pressure perfused at 100 mmHg with 10% buffered formaldehyde. Both carotid arteries were harvested and processed for histology. Serial cross-sections were cut every 2 mm within and outside the implant in the injured left carotid artery and at corresponding levels in the control right carotid artery. Sections were stained with hematoxylin-and-eosin and Movat's stains and digitized for computer assisted morphometric analysis to quantify luminal narrowing and intimal hyperplasia.

SMILES | caspase 3 activation in neutrophils [1] | toxicity of drug-loaded hyaluronic acid films ([2]; rat, in vivo) | mean surgical adhesion score [2] | necrosis or toxicity after perivascular application ([3]; rat, in vivo) | surgical adhesion formation, in words ([2]; rats) | further results
CC1(C)CCC2=C(O1)c1ccccc1C(=O)C2=O [beta-lapachone] | induced an increase in the activation of caspase 3 levels | did not induce any toxic side effects |  |  |  | 
CC[C@@]1(O)C(=O)OCc2c1cc1n(c2=O)Cc2cc3ccccc3nc2-1 [camptothecin] | induced high levels of caspase 3 activation |  | 0.95 |  |  | inhibition of luminal narrowing ([3]; 0.2% (w/w to EVA) film): more than 50%; inhibition of intimal hyperplasia ([3]; 0.2%, 1% and 10% loaded EVA films, 14 days): partial inhibition; inhibition of intimal hyperplasia ([3]; 20% loaded EVA film, 14 days): Complete inhibition; luminal narrowing ([3]; all concentrations above 0.2% in EVA film): reduced the luminal narrowing to almost zero; toxicity of drug-loaded hyaluronic acid films ([2]; films applied to abraded surgical site, rats): no associated toxicity
COc1cccc2c1C(=O)c1c(O)c3c(c(O)c1C2=O)C[C@@](O)(C(=O)CO)C[C@@H]3O[C@H]1C[C@H](N)[C@H](O)[C@H](C)O1 [doxorubicin] | induced an increase in the activation of caspase 3 levels | did not induce any toxic side effects | 1.24 | did not induce any necrosis or toxicity in surrounding tissue | inhibition of adhesion formation occurs | inhibition of intimal hyperplasia ([3]; 2% loading (w/w to EVA) film): completely inhibited; inhibition of luminal narrowing ([3]; 2% loading (w/w to EVA) film): completely inhibited; surgical adhesion formation, in words ([2]; rats, listed as dodxorubicin): major inhibition of surgical adhesion formation
COc1cc([C@@H]2c3cc4c(cc3[C@@H](O[C@@H]3O[C@@H]5CO[C@@H](C)O[C@H]5[C@H](O)[C@H]3O)[C@H]3COC(=O)[C@H]23)OCO4)cc(OC)c1O [etoposide] | induced an increase in the activation of caspase 3 levels | did not induce any toxic side effects |  | did not induce any necrosis or toxicity in surrounding tissue | inhibition of adhesion formation occurs | inhibition of intimal hyperplasia ([3]; both 1% and 5% loaded EVA films): approximately 75%
CC1=CC(=O)c2c(O)cccc2C1=O [plumbagin] |  |  |  |  |  | necrosis or toxicity after perivascular application ([3]; applied to the perivascular side of the rat carotid artery): excessive toxicities
